Test results as given in article PMC7269513 (Antimicrobial Agents and Chemotherapy, 2020).
“And” between values parts separate entries of the source, which are not always exact repeats. Equal entries are not always repeated. Where two headings read alike, the source gives them in different places.

Columns and labels:
CTX-M-14 = CTX-M-14 (Escherichia coli, UniProt Q9L5C7); experiment: IC50 of beta-lactamase inhibition (nitrocefin hydrolysis); assay type: biochemical; conditions: read-out: IC50 (nM) of drug
Chain of CTX-M-14 (Q9L5C7 entry or part of it): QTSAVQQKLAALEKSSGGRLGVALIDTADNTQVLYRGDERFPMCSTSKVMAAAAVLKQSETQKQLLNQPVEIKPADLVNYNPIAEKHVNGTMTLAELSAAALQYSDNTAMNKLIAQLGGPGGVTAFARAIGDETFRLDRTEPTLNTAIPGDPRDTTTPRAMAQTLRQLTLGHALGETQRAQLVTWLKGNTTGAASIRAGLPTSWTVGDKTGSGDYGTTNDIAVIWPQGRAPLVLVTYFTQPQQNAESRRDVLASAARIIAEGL

SHV-12 = SHV-12 (Klebsiella pneumoniae, UniProt P0AD64, E235K/G234S/L31Q); experiment: as above; assay type: biochemical; conditions: read-out: IC50 (nM) of drug
Chain of SHV-12 (P0AD64 22-286 L31Q/G234S/E235K): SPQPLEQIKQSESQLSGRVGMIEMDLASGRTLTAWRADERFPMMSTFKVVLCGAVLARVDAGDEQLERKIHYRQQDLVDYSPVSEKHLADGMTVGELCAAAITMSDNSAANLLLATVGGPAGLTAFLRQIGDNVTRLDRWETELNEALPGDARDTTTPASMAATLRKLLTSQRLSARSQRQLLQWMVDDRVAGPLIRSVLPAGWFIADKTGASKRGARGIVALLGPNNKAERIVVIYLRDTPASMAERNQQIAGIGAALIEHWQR

CTX-M-15 = CTX-M-15 (Escherichia coli, UniProt Q9EXV5); experiment: as above; assay type: biochemical; conditions: read-out: IC50 (nM) of drug
Chain of CTX-M-15 (Q9EXV5 entry or part of it): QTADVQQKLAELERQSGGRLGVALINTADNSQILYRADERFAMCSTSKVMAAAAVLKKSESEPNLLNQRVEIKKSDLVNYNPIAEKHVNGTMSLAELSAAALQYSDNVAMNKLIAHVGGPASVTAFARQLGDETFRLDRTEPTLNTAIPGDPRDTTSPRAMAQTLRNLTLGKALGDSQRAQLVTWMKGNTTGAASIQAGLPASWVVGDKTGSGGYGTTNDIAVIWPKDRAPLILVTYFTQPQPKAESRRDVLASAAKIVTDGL
Experimental: (§1) […]; Initial rates of reaction were calculated and exported to Prism software to calculate IC50 values using the “dose-response—inhibition, variable slope (four parameters)” equation. Ki values were calculated by the method of Waley ([31]). This method was previously used to calculate Ki values for boronic fast-on–fast-off BLIs.

P99 = P99 (Enterobacter cloacae, UniProt P05364); experiment: as above; assay type: biochemical
Chain of P99 (P05364 21-381): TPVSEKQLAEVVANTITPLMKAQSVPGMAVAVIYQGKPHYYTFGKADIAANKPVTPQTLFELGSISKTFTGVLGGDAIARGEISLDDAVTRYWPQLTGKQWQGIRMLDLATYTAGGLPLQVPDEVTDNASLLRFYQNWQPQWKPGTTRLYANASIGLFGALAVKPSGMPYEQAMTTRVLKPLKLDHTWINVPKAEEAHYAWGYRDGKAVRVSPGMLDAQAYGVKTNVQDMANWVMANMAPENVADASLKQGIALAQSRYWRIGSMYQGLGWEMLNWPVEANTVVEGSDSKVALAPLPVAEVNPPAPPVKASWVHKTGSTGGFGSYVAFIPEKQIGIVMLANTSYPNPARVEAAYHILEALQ
Experimental: as §1

VIM-1 [1] = target: T1, VIM-1 (Pseudomonas aeruginosa, UniProt A0A0F7KYQ8); experiment: as above; assay type: biochemical; conditions: IC50 (nM) of drug
IMP-1 [2] = target: T2, IMP-1 (Serratia marcescens, UniProt P52699); experiment: IC50 of beta-lactamase inhibition (imipenem hydrolysis); assay type: biochemical
T2 sequence (P52699 19-246 limits assumed): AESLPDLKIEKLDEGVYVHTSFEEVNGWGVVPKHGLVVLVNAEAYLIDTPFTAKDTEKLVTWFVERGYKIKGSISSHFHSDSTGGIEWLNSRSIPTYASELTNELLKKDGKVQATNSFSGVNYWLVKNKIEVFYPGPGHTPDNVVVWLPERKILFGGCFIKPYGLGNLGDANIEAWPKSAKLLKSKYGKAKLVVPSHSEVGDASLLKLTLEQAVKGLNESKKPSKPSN

NDM-1 [3] = target: T3, NDM-1 (Klebsiella pneumoniae, UniProt C7C422); experiment: biochemical
T3 sequence (C7C422 29-270 limits assumed): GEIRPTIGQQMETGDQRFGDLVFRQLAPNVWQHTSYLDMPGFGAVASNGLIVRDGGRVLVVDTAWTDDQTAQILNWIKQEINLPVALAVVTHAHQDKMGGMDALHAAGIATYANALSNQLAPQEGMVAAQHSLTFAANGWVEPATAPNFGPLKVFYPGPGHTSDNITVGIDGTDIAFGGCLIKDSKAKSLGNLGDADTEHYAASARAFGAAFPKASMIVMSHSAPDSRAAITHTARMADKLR

KPC-2 = KPC-2 (Klebsiella pneumoniae, UniProt Q9F663); assay type: biochemical
Chain of KPC-2 (Q9F663 25-293 limits assumed): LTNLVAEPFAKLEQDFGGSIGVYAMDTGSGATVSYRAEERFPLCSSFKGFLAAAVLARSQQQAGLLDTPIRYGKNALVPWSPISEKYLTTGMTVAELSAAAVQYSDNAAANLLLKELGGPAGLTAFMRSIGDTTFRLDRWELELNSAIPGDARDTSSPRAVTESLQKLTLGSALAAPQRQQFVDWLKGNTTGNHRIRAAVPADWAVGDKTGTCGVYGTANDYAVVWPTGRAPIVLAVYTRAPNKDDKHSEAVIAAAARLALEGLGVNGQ

NDM-1 [4] = target: T3, NDM-1; assay type: biochemical
IMP-26 = IMP-26 (Pseudomonas aeruginosa, UniProt D0V558); assay type: biochemical; conditions: hydrolysis by IMP-26
Chain of IMP-26 (D0V558 entry or part of it): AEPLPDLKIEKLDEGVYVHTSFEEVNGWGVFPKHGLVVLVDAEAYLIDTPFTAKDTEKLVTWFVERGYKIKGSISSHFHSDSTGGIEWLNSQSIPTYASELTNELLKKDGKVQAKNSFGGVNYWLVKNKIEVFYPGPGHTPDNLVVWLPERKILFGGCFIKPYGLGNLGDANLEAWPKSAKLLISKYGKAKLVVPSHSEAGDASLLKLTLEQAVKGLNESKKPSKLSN

OXA-48 = OXA-48 (Klebsiella pneumoniae, UniProt Q6XEC0)
Chain of OXA-48 (Q6XEC0 23-265 limits assumed): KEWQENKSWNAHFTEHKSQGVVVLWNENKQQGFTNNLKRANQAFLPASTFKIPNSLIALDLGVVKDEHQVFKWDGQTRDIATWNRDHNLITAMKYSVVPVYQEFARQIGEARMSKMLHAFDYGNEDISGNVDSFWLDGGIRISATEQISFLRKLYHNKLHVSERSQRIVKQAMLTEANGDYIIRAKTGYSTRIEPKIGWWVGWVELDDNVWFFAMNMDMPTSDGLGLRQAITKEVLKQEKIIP

OXA-23 = OXA-23 (Acinetobacter baumannii, UniProt Q9L4P2)
Chain of OXA-23 (Q9L4P2 18-273): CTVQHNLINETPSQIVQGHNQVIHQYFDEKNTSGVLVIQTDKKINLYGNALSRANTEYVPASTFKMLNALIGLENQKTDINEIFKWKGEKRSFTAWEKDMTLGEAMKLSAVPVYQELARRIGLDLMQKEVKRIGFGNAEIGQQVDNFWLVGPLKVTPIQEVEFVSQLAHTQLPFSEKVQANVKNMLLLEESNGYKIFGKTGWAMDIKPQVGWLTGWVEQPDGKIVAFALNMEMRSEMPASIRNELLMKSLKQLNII

OXA-24 = OXA-24 (Acinetobacter baumannii, UniProt Q8RLA6)
Chain of OXA-24 (Q8RLA6 entry or part of it): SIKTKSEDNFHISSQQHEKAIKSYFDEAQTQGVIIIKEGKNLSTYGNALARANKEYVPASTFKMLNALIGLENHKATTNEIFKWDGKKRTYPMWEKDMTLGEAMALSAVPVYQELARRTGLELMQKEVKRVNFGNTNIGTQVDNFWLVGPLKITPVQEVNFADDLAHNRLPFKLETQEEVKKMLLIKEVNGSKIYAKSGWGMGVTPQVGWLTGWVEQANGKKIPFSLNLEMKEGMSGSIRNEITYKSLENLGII

OXA-58 = OXA-58 (Acinetobacter baumannii, UniProt Q2TR58)
Chain of OXA-58 (Q2TR58 19-280): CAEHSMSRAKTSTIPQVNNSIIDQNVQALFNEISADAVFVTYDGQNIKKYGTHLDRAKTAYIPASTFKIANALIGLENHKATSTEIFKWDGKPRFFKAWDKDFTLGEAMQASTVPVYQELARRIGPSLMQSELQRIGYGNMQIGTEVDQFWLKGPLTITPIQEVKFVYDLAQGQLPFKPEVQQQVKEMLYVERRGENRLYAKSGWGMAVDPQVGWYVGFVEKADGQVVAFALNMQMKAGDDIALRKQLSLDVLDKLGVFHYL

VIM-1 [5] = target: T1, VIM-1
IMP-1 [6] = target: T2, IMP-1
[7] = tested on: O=C(Cc1cccs1)N[C@@H]1C(=O)N2C(C(=O)O)=C(/C=C/c3ccc([N+](=O)[O-])cc3[N+](=O)[O-])CS[C@H]12; experiment: purified protein, by the assay type

| Compound | IC50 (CTX-M-14) | IC50 (SHV-12) | IC50 (VIM-1 [1]) | IC50 (IMP-1 [2]) | IC50 (NDM-1 [3]) | Km [7] | kcat [7] | kcat/Km [7] | also measured |
| --- | --- | --- | --- | --- | --- | --- | --- | --- | --- |
| NC(=O)[C@@H]1CC[C@@H]2CN1C(=O)N2OS(=O)(=O)O [Avibactam, avibactam] | 1.4 ± 0.4 nM | 0.61 ± 0.19 nM | > 160000 nM | > 160 µM | > 160 µM | – | – | – | IC50 (CTX-M-15): 0.56 ± 0.25 nM; IC50 (P99; IC50 (nM) of drug): 26 ± 7 nM |
| C[C@@H](O)[C@H]1C(=O)N2C(C(=O)O)=C(SCCN=CN)C[C@H]12 [Imipenem, imipenem] | – | – | – | – | – | – | – | – | Km (KPC-2): 70 µM; kcat (KPC-2): 39 s⁻¹; Km (NDM-1 [4]): 206 µM; kcat (NDM-1 [4]): 96 s⁻¹; kcat (IMP-26): 35 s⁻¹; Km (OXA-48): 1500 nM; kcat (OXA-48): 1.7 s⁻¹; Km (OXA-23): 6.6 µM; kcat (OXA-23): 0.7 s⁻¹; Km (OXA-24): 1200 nM; kcat (OXA-24): 1.9 s⁻¹; Km (OXA-58): 1300 nM; kcat (OXA-58): 0.66 s⁻¹; Km (VIM-1 [5]): 13 µM; kcat (VIM-1 [5]): 15 s⁻¹; Km (IMP-1 [6]): 66 µM |
| O=C(NC1CCNCC1)[C@@H]1CC[C@@H]2CN1C(=O)N2OS(=O)(=O)O [Relebactam, relebactam] | 34 ± 10 nM | 330 ± 50 nM | > 160000 nM | > 160 µM | > 160 µM | – | – | – | IC50 (P99; P99, class C, substrate nitrocefin, 10 min preincubation at 37°C, read-out: IC50 (nM) of drug): 36 ± 4 nM |
| (Escherichia coli) | – | – | – | – | – | 22 µM and 24 µM | 334 s⁻¹ and 341 s⁻¹ | 15 s⁻¹ µM⁻¹ | – |
| (Acinetobacter baumannii) | – | – | – | – | – | 62 µM and 28 µM and 34 µM | 357 s⁻¹ and 208 s⁻¹ and 518 s⁻¹ | 5.8 s⁻¹ µM⁻¹ and 7.6 s⁻¹ µM⁻¹ and 15 s⁻¹ µM⁻¹ | – |
| (Enterobacter cloacae) | – | – | – | – | – | 100 µM | 479 s⁻¹ | 4.8 s⁻¹ µM⁻¹ | – |
